# Measurements as given in patent US12527817B2, “Manufacturing of selenium disulfide compositions” (Azura Ophthalmics Ltd., priority 2020, dated 2026).
# Assay: Particle size analysis under a microscope (400x magnification)
# Format: physicochemical
# Conditions: mixing liquid petrolatum at 60° C. with micronized SeS2, 400× microscope magnification
# Procedure: FIG. 4 illustrates SeS2 formulation obtained mixing liquid petrolatum at a temperature of 60° C. with micronized SeS2 at 400× microscope magnification showing the presence of SeS2 particles larger than 25 microns.
# FIG. 3 illustrates a 1% SeS2 (w/w) formulation obtained using the low temperature process.
# The active ingredient was SeS2, wherein the particle size distribution D90 is less than 10 microns. The base medium was USP grade petrolatum. A reaction vessel capable of accepting a high shear mixing apparatus was charged with the USP grade petrolatum. In order to create uniform particles distribution in the petrolatum, high shear mixing was applied to disperse the particles. Addition of the active ingredients to the bulk while the whole bulk is agitated is essential in order to properly disperse the active ingredient, the high shear head was used to break the agglomerates to primary particles creating a uniform and homogeneous paste.
structure (smiles),measurement,value
"S=[Se]=S [SeS2, selenium disulfide]",SeS2 particle size,over 25 microns
